Measurements: patent US20100016396A1, “PYRAZOLE COMPOUND” (priority 2007, published 2010)

Target: T1, PPARγ-RXRα heterodimer (Homo sapiens, UniProt P37231)
T1 construct: expressed in transfected cells; host or cells: CHO-K1
T1 sequence (P37231 1-505): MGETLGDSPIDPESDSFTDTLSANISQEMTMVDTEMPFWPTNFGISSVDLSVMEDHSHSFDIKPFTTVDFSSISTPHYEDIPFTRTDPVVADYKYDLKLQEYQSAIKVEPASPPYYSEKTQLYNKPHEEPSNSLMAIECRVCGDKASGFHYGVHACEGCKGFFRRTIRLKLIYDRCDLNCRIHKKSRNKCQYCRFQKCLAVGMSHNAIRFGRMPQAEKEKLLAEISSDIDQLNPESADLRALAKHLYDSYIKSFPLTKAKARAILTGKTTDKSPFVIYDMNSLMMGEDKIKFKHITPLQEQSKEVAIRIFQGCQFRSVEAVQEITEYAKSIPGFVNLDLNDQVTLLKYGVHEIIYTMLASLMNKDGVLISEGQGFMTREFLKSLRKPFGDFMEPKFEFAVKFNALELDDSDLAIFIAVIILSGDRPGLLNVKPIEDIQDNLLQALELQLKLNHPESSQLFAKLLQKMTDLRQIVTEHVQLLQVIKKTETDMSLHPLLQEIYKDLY
T1 sequence (P19793 1-462 partner): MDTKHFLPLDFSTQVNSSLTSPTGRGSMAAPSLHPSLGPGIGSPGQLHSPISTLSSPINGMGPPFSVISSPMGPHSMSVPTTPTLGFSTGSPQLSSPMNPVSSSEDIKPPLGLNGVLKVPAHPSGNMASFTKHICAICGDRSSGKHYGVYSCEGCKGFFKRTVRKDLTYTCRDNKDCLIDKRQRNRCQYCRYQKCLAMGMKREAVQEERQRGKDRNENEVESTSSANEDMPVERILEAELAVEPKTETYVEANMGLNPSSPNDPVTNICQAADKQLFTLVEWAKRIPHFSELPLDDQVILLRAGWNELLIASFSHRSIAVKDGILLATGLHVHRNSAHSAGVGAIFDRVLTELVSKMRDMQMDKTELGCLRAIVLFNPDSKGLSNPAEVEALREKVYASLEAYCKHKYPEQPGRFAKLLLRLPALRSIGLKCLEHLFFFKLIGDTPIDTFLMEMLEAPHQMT
Test: PPARγ-RXRα heterodimer ligand activity (luciferase reporter in PPARγ:RXRα:4ERPP/CHO-K1 cells)
Format: cell-based
Conditions: luciferase induction ratio, 1 day culture, concentration showing 50% of the maximum induction ratio
Procedure: PPARγ:RXRα:4ERPP/CHO-K1 cells described in WO03/099793 were cultured in hamF12 medium [manufactured by Life Technologies, Inc., USA] supplemented with 10% fetal bovine serum [manufactured by Life Technologies, Inc., USA], plated on a 96 well white half area plate [manufactured by Corning Coster Corporation, USA] at 1×10^4 cells/well and cultured overnight in a carbon dioxide gas incubator at 37° C.
The medium was removed from the 96 well white half area plate, 45 μl of hamF12 medium containing 0.1% fatty acid-free bovine serum albumin (BSA) and 5 μl of a test compound were added, and the cells were cultured in a carbon dioxide gas incubator at 37° C. for 1 day. The medium was removed, and 20 μl of PicaGene 7.5 (manufactured by Wako Pure Chemical Industries, Ltd.) diluted 2-fold with HBSS (HANKS' BALANCED SALT SOLUTION) [manufactured by BIO WHITTAKER, USA] was added. After stirring, the luciferase activity was measured using a 1420 ARVO Multilabel Counter [manufactured by Perkin Elmer Inc., USA].
The induction ratio was calculated from the luciferase activity of each test compound relative to the luciferase activity of the test compound non-administration group as 1. The concentration of the test compound and the induction ratio were analyzed using PRISM [manufactured by GraphPad Software, Inc., USA] and EC50 value (concentration of compound showing 50% of the maximum induction ratio) of the test compound was calculated.

**Q.** CON=Cc1c(C)nn(C)c1Oc1cc(O[C@@H](C)C(=O)O)c(Cl)cc1Cl [Example 123, (2S)-2-[2,4-dichloro-5-({4-[(methoxyimino)methyl]-1,3-dimethyl-1H-pyrazol-5-yl}oxy)phenoxy]propionic acid] was tested. Which EC50 did it give?
**A.** 4.1 nM

**Q.** For Cc1c(C(F)(F)F)nn(C)c1Oc1cc(O[C@@H](C)C(=O)O)c(Cl)cc1Cl [Example 74, (2S)-2-(2,4-dichloro-5-{[1,4-dimethyl-3-(trifluoromethyl)-1H-pyrazol-5-yl]oxy}phenoxy)propionic acid], which EC50 is on record?
**A.** 13 nM

**Q.** Cc1nn(C)c(Oc2cc(O[C@@H](C)C(=O)O)c(Cl)cc2Cl)c1C=NOCc1ccccc1 [Example 125, (2S)-2-{5-[(4-{[(benzyloxy)imino]methyl}-1,3-dimethyl-1H-pyrazol-5-yl)oxy]-2,4-dichlorophenoxy}propionic acid] was tested. Which EC50 did it give?
**A.** 3.1 nM

**Q.** Which EC50 does the source give for Cc1nn(C)c(Oc2cc(O[C@@H](C)C(=O)O)c(Cl)cc2Cl)c1/C=N/O [Example 104, (2S)-2-[2,4-dichloro-5-({4-[(E)-(hydroxyimino)methyl]-1,3-dimethyl-1H-pyrazol-5-yl}oxy)phenoxy]propionic acid] here?
**A.** 25 nM

**Q.** Which EC50 does the source give for CCNC(=O)OCCCc1c(C)nn(C)c1Oc1cc(O[C@@H](C)C(=O)O)c(Cl)cc1Cl [Example 298, (2S)-2-(2,4-dichloro-5-{[4-(3-{[(ethylamino)carbonyl]oxy}propyl)-1,3-dimethyl-1H-pyrazol-5-yl]oxy}phenoxy)propionic acid] here?
**A.** 17 nM

**Q.** With C[C@H](Oc1cc(Oc2c3ccccc3nn2C)c(Cl)cc1Cl)C(=O)O [Example 30, (2S)-2-{2,4-dichloro-5-[(2-methyl-2H-indazol-3-yl)oxy]phenoxy}propionic acid] as the compound, how does the EC50 read?
**A.** 5.8 nM

**Q.** C=Cc1c(C(C)C)nn(C)c1Oc1cc(O[C@@H](C)C(=O)O)c(Cl)cc1Cl [Example 43, (2S)-2-{2,4-dichloro-5-[(3-isopropyl-1-methyl-4-vinyl-1H-pyrazol-5-yl)oxy]phenoxy}propionic acid] was tested. Which EC50 did it give?
**A.** 4.6 nM

**Q.** For Cc1cc(Br)c(O[C@@H](C)C(=O)O)cc1Oc1c(C#N)c(C2CC2)nn1C [Example 256, (2S)-2-{2-bromo-5-[(4-cyano-3-cyclopropyl-1-methyl-1H-pyrazol-5-yl)oxy]-4-methylphenoxy}propionic acid], which EC50 is on record?
**A.** 22 nM

**Q.** With CCc1c(C(F)(F)F)nn(C)c1Oc1cc(O[C@@H](C)C(=O)O)c(Cl)cc1Cl [Example 76, (2S)-2-(2,4-dichloro-5-{[4-ethyl-1-methyl-3-(trifluoromethyl)-1H-pyrazol-5-yl]oxy}phenoxy)propionic acid] as the compound, how does the EC50 read?
**A.** 9.9 nM

**Q.** How did the EC50 turn out when C=Cc1c(C(F)(F)F)nn(C)c1Oc1cc(O[C@@H](C)C(=O)O)c(Cl)cc1Cl [Example 20, (2S)-2-(2,4-dichloro-5-{[1-methyl-3-(trifluoromethyl)-4-vinyl-1H-pyrazol-5-yl]oxy}phenoxy)propionic acid] was run?
**A.** 3.7 nM

**Q.** How did the EC50 turn out when Cc1nn(C)c(Sc2cc(O[C@@H](C)C(=O)O)c(Cl)cc2Cl)c1C#N [Example 210, (2S)-2-{2,4-dichloro-5-[(4-cyano-1,3-dimethyl-1H-pyrazol-5-yl)thio]phenoxy}propionic acid] was run?
**A.** 9.9 nM

**Q.** For Cc1nn(C)c(Sc2cc(O[C@@H](C)C(=O)O)c(Cl)cc2Cl)c1C [Example 115, (2S)-2-{2,4-dichloro-5-[(1,3,4-trimethyl-1H-pyrazol-5-yl)thio]phenoxy}propionic acid], which EC50 is on record?
**A.** 10 nM

**Q.** C=Cc1c(C)nn(C)c1Oc1cc(O[C@@H](C)C(=O)O)c(Cl)cc1Cl [Example 14, (2S)-2-{2,4-dichloro-5-[(1,3-dimethyl-4-vinyl-1H-pyrazol-5-yl)oxy]phenoxy}propionic acid] was tested. Which EC50 did it give?
**A.** 5 nM

**Q.** C=Cc1c(CCC)nn(C)c1Oc1cc(O[C@@H](C)C(=O)O)c(Cl)cc1Cl [Example 41, (2S)-2-{2,4-dichloro-5-[(1-methyl-3-propyl-4-vinyl-1H-pyrazol-5-yl)oxy]phenoxy}propionic acid] was tested. Which EC50 did it give?
**A.** 2.4 nM

**Q.** For Cc1nn(C)c(Oc2cc(O[C@@H](C)C(=O)O)c(Cl)cc2Cl)c1C [Example 1, (2S)-2-{2,4-dichloro-5-[(1,3,4-trimethyl-1H-pyrazol-5-yl)oxy]phenoxy}propionic acid], which EC50 is on record?
**A.** 24 nM

**Q.** With C[C@H](Oc1cc(Oc2c3c(nn2C)CCCC3)c(Cl)cc1Cl)C(=O)O [Example 31, (2S)-2-{2,4-dichloro-5-[(2-methyl-4,5,6,7-tetrahydro-2H-indazol-3-yl)oxy]phenoxy}propionic acid] as the compound, how does the EC50 read?
**A.** 9.3 nM

**Q.** Cc1nn(C)c(Oc2cc(O[C@@H](C)C(=O)O)c(Cl)cc2Cl)c1C#N [Example 106, (2S)-2-{2,4-dichloro-5-[(4-cyano-1,3-dimethyl-1H-pyrazol-5-yl)oxy]phenoxy}propionic acid] was tested. Which EC50 did it give?
**A.** 120 nM

**Q.** Which EC50 does the source give for CCC/C=C/c1c(C)nn(C)c1Oc1cc(O[C@@H](C)C(=O)O)c(Cl)cc1Cl [Example 89, (2S)-2-[2,4-dichloro-5-({1,3-dimethyl-4-[(1E)-1-penten-1-yl]-1H-pyrazol-5-yl}oxy)phenoxy]propionic acid] here?
**A.** 2 nM
